Source: PMC12441843 (ACS pharmacology & translational science, 2025)
Values joined by “and” are separate entries in the source; they are usually repeats but may differ in a detail not shown here. Equal values may be shown once. Read-outs that look alike come from different tables or passages of the source. Blank lines part the entries; values can stand above or below the compound they belong to.

Key:
[1] = test system: proliferating lung fibroblasts; assay: Cleaved caspase-3 (CCasp3) immunocytochemistry in proliferating lung fibroblasts; assay type: cell-based, human
[2] = test system: senescent lung fibroblasts; assay: Cleaved caspase-3 (CCasp3) immunocytochemistry in senescent lung fibroblasts; assay type: cell-based, human; details: for Senolytic window (EC50pro/EC50sen): ratio of proliferating to senescent fibroblast EC50; for concentration above which senolytic effects were displayed: CCasp3 dose-response
[3] = test system: precision-cut lung slices from bleomycin-injured aged mouse lungs; assay: Precision-cut lung slices (PCLS) from aged mice +/- bleomycin, qPCR; details: 72 hours ex vivo; for Col1a1 expression in PCLS: Nintedanib 1.0μM, vs. vehicle
[4] = Plasma stability assay, mouse plasma; assay type: in vitro ADME
[5] = test system: mice with bleomycin induced lung fibrosis; assay: Oral dose-finding study with F-4N in bleomycin mice (body mass, lung cytokine transcripts); assay type: in vivo, mouse
[6] = test system: repeated bleomycin-induced lung fibrosis; assay: Repeated bleomycin-induced model of lung fibrosis; assay type: in vivo, mouse; details: 10mg/kg daily i.p. for two weeks
[7] = test system: bleomycin-induced lung fibrosis in aged mice; assay: Bleomycin-induced model of lung fibrosis in aged mice; assay type: in vivo, mouse
[8] = Mouse liver microsomal stability; assay type: in vitro ADME; details: mouse liver microsomes, 1 μM
[9] = test system: proliferating lung fibroblasts; assay: Annexin V / Propidium Iodide flow cytometry, proliferating fibroblasts; assay type: cell-based, human; details: 72 hours, F-4N 3.0 μM
[10] = Plasma stability assay, human plasma; assay type: in vitro ADME
[11] = test system: senescent lung fibroblasts; assay: Annexin V / Propidium Iodide flow cytometry, senescent fibroblasts; assay type: cell-based, human; details: 72 hours, F-4N 3.0 μM
[12] = Plasma levels following oral delivery of F-4N; assay type: in vivo; details: both sexes, mouse, 30 mg/kg
[13] = test system: bleomycin-induced lung fibrosis; assay: Bleomycin model in young Col1a2-mTmG mice, FACS-sorted fibroblasts and epithelial cells, qPCR; assay type: in vivo, mouse
[14] = Homo sapiens, Fibroblast, 72 h, read-out: Proliferating fibroblast apoptosis EC50, cleaved caspase-3 staining, 72 hours, low passage human lung fibroblasts
[15] = Homo sapiens, Fibroblast, 72 h, read-out: Senescent fibroblast apoptosis EC50
[16] = F-4N 3µM, ABT-263 5.0µM, ABT-199 3µM
[17] = 10 mg/kg i.p. daily days 14-28, vs. vehicle
[18] = read-out: Proliferating fibroblast apoptosis EC50, cleaved caspase-3 staining, 72 hours, low passage human lung fibroblasts
[19] = senescent vs. proliferating fibroblasts, 72 hours

SMILES: CC1(C)CCC(CN2CCN(c3ccc(C(=O)NS(=O)(=O)c4ccc(NCC5CCOCC5)c([N+](=O)[O-])c4)c(Oc4cnc5[nH]ccc5c4)c3)CC2)=C(c2ccc(Cl)cc2)C1 [ABT-199, venetoclax, reference compound]
EC50 [1, 14]: 76.5 µM | EC50 [2, 15]: 3.2 µM | Senolytic window (EC50pro/EC50sen) [2]: 23.9

SMILES: CC1(C)CCC(c2ccc(Cl)cc2)=C(CN2CCN(c3ccc(C(=O)NS(=O)(=O)c4ccc(N[C@H](CCN5CCOCC5)CSc5ccccc5)c(S(=O)(=O)C(F)(F)F)c4)cc3)CC2)C1 [ABT-263, navitoclax, reference compound]
EC50 [1, 14]: 14.9 µM | EC50 [2, 15]: 1.9 µM | Senolytic window (EC50pro/EC50sen) [2]: 7.8

SMILES: CN(C)CC[C@H](CSc1ccccc1)Nc1ccc(S(=O)(=O)NC(=O)c2ccc(N3CCN(Cc4ccccc4-c4ccc(Cl)cc4)CC3)cc2)cc1[N+](=O)[O-] [ABT-737, reference compound]
EC50 [1, 14]: 9.7 µM | EC50 [2, 15]: 0.7 µM

SMILES: O=c1c(O)c(-c2ccc(OCc3ccccn3)cc2)oc2ccccc12 [Compound F-2N]
EC50 [1, 14]: 29.8 µM | EC50 [2, 15]: 21.8 µM | Senolytic window (EC50pro/EC50sen) [2]: 1.4

SMILES: O=c1c(O)c(-c2ccc(OCc3cccnc3)cc2)oc2ccccc12 [Compound F-3N]
EC50 [1, 14]: 14.9 µM | EC50 [2, 15]: 11.2 µM | Senolytic window (EC50pro/EC50sen) [2]: 1.3

SMILES: O=c1c(O)c(-c2ccc(OCc3ccncc3)cc2)oc2ccccc12 [Compound F-4N]
markers indicative of alveolar regeneration in PCLS [3, 16]: stimulated expression of markers indicative of alveolar regeneration | senescence associated markers in PCLS [3, 16]: supported reductions in senescence associated markers | half-life at 1 μM [4]: > 120 min | bodyweight ([5]; 30mg/kg daily p.o. for one week): improvement in bodyweight | minimum effective oral dose to impact expression of Infa2, Il6, Ccl19, Cxcl13, Tgfb2, Ltb ([5]; daily p.o. 7 days, whole lung qPCR): 30 mg/kg | expression of aberrant basaloid/intermediate epithelial markers Snf, Cldn4, Krt19, Mmp7 [6]: repressing expression | expression of mature alveolar epithelial markers Hopx, Ager, Sftpa1, Sftpc [6]: enhanced expression | body mass, lung architecture, collagen content, whole lung gene expression ([6]; vs. vehicle): features consistent with resolution | plasma levels of IL-6 ([7]; 10 mg/kg i.p. daily days 14-28): nearly complete normalization | lung collagen content (hydroxyproline) [7, 17]: nearly complete resolution of lung collagen content | mouse survival [7, 17]: improvement in mouse survival | whole lung expression of ECM and senescence-associated transcripts [7, 17]: significantly lower expression | whole lung markers associated with alveolar regeneration and repair [7, 17]: significantly elevated | microsomal half-life relative to quercetin [8]: > 3 fold | EC50 [1, 14]: 48.9 µM | greater senolytic potency in vitro compared to fisetin or quercetin [2]: ~ 50 X | EC50 [2, 15]: 0.8 µM | EC50 ([2]; Homo sapiens, Fibroblast, read-out: EC50 (senolytic potency, CCasp3 assay)): 0.9 µM | IC50 ([2]; Homo sapiens, Fibroblast, read-out: defined in vitro IC50): 0.9 µM | Senolytic window (EC50pro/EC50sen) [2]: 61.1 | cleaved caspase-3 expression in senescent fibroblasts derived from multiple stimuli ([2]; senescence by replication, radiation, etoposide or bleomycin, 72 hours, F-4N 3µM): induces cleaved caspase-3 expression | senolytic window (selective) ([2]; senescent vs. proliferating fibroblasts): 61.1 fold | apoptosis (Annexin V / Propidium Iodide) [9]: without an observable impact | half-life at 1 μM [10]: > 120 min | apoptosis (Annexin V / Propidium Iodide) [11]: selective apoptosis in senescent lung fibroblasts | concentration at 2 h [12]: 561 ng/mL and 1.62 µM

expression of pathological markers of lung fibrosis (ECM genes, senescence-associated soluble factors, aberrant basaloid markers) ([13]; 10 mg/kg i.p. daily for 4 days): normalized expression | ranking in follow-up dose-response of the commercial flavonol library ([2]; CCasp3, senescent and proliferating lung fibroblasts): most potent and selective senolytics
SMILES: CCOc1ccc(-c2oc3ccccc3c(=O)c2O)cc1 [Compound F-19]
expression of Sftpc and Hopx (mature alveolar epithelium) in PCLS ([3]; F-19 10μM): increased expression | Col1a1 expression in PCLS ([3]; F-19 10μM): reduced expression of Col1a1 | expression of senescence-associated markers Cdkn2a, Cdkn1a, Il6 in PCLS ([3]; F-19 10μM, vs. vehicle- and nintedanib-treated): significantly reduced expression | expression of TNF-α in fibroblasts and epithelial cells ([13]; 10 mg/kg i.p. daily for 4 days): did not alter expression | expression of Cdkn2a (p16) and Cdkn1a (p21) in fibroblasts and epithelial cells ([13]; 10 mg/kg i.p. daily for 4 days from day 10 after bleomycin, vs. vehicle): significantly reduced expression | expression of alveolar epithelial ATII, ATII/ATI and ATI markers ([13]; 10 mg/kg i.p. daily for 4 days, vs. vehicle): elevated expression | EC50 [1, 14]: 25 µM | EC50 [1, 18]: 24.5 µM | more potent than the natural products Q or F [2]: 10 fold | EC50 [2, 15]: 2.4 µM | Senolytic window (EC50pro/EC50sen) [2]: 10.2

SMILES: O=c1c(O)c(-c2ccc(OCc3ccccc3)cc2)oc2ccccc12 [Compound F-20]
EC50 [1, 14]: 27.6 µM | EC50 [2, 15]: 1.5 µM | Senolytic window (EC50pro/EC50sen) [2]: 18.4

Senolytic window (EC50pro/EC50sen) [2]: 5.7 | EC50 ([2]; read-out: Senescent fibroblast apoptosis EC50, cleaved caspase-3 staining, 72 hours, replicative senescent human lung fibroblasts): 3.4 µM
SMILES: CCCOc1ccc(-c2oc3ccccc3c(=O)c2O)cc1 [F-19(Me)]
EC50 [1, 18]: 19.5 µM

SMILES: O=c1c(O)c(-c2ccc(O)c(O)c2)oc2cc(O)ccc12 [fisetin, reference compound]
concentration above which senolytic effects were displayed [2, 19]: above 30 μM

SMILES: COC(=O)c1ccc2c(c1)NC(=O)/C2=C(\Nc1ccc(N(C)C(=O)CN2CCN(C)CC2)cc1)c1ccccc1 [nintedanib, reference compound]
Col1a1 expression in PCLS ([3]; F-19 10μM): reduced expression of Col1a1

half-life at 1 μM [4]: ~30 min | half-life at 1 μM [10]: ~30 min
SMILES: O=c1c(O)c(-c2ccc(O)c(O)c2)oc2cc(O)cc(O)c12 [quercetin, reference compound]
concentration above which senolytic effects were displayed [2, 19]: above 30 μM | EC50 [2, 15]: > 30 µM
